Assay results taken from PubChem BioAssay (NCI).
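Dose response: 5 concentrations. Exposure: 48 h. Format: 96-well plates. Endpoint: linear interpolation; highest concentration if not reached. At the GI50, growth is halved. TGI is the concentration that stops growth completely.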

Tests used:
Assay in all cases: NCI-60 cell line screen, 48 h
CAKI-1 renal = tested on: CAKI-1 renal
SR leukemia = tested on: SR leukemia
UO-31 renal = tested on: UO-31 renal
786-0 renal = tested on: 786-0 renal
BT-549 breast = tested on: BT-549 breast
K-562 leukemia = tested on: K-562 leukemia
SF-539 CNS = tested on: SF-539 CNS
HCT-15 colon = tested on: HCT-15 colon
OVCAR-4 ovarian = tested on: OVCAR-4 ovarian
OVCAR-3 ovarian = tested on: OVCAR-3 ovarian
LOX IMVI melanoma = tested on: LOX IMVI melanoma
MOLT-4 leukemia = tested on: MOLT-4 leukemia
SF-268 CNS = tested on: SF-268 CNS
SK-MEL-2 melanoma = tested on: SK-MEL-2 melanoma
TK-10 renal = tested on: TK-10 renal
U251 CNS = tested on: U251 CNS
HS 578T breast = tested on: HS 578T breast
MCF7 breast = tested on: MCF7 breast
SW-620 colon = tested on: SW-620 colon
MDA-MB-435 = tested on: MDA-MB-435
RXF 393 renal = tested on: RXF 393 renal
SF-295 CNS = tested on: SF-295 CNS
MALME-3M melanoma = tested on: MALME-3M melanoma
ACHN renal = tested on: ACHN renal
CCRF-CEM leukemia = tested on: CCRF-CEM leukemia
SK-OV-3 ovarian = tested on: SK-OV-3 ovarian
A549 NSCLC = tested on: A549 NSCLC
SN12C renal = tested on: SN12C renal
UACC-257 melanoma = tested on: UACC-257 melanoma
UACC-62 melanoma = tested on: UACC-62 melanoma
OVCAR-8 ovarian = tested on: OVCAR-8 ovarian
KM12 colon = tested on: KM12 colon
NCI-H460 lung = tested on: NCI-H460 lung
HCC-2998 colon = tested on: HCC-2998 colon
M14 melanoma = tested on: M14 melanoma
OVCAR-5 ovarian = tested on: OVCAR-5 ovarian
SNB-19 CNS = tested on: SNB-19 CNS
HL-60(TB) leukemia = tested on: HL-60(TB) leukemia
DU-145 prostate = tested on: DU-145 prostate
HOP-92 NSCLC = tested on: HOP-92 NSCLC
HCT-116 colon = tested on: HCT-116 colon
SK-MEL-28 melanoma = tested on: SK-MEL-28 melanoma
A498 renal = tested on: A498 renal
IGROV1 ovarian = tested on: IGROV1 ovarian
SNB-75 CNS = tested on: SNB-75 CNS
T-47D breast = tested on: T-47D breast
NCI/ADR-RES ovarian = tested on: NCI/ADR-RES ovarian
SK-MEL-5 melanoma = tested on: SK-MEL-5 melanoma
EKVX NSCLC = tested on: EKVX NSCLC
PC-3 prostate = tested on: PC-3 prostate
HT29 colon = tested on: HT29 colon
NCI-H23 lung = tested on: NCI-H23 lung
NCI-H226 lung = tested on: NCI-H226 lung
MDA-MB-231 breast = tested on: MDA-MB-231 breast
HOP-62 NSCLC = tested on: HOP-62 NSCLC
RPMI-8226 leukemia = tested on: RPMI-8226 leukemia
NCI-H522 lung = tested on: NCI-H522 lung
COLO 205 colon = tested on: COLO 205 colon

SMILES: CCN(CC)CCS(=O)(=O)CCNc1ccnc2cc(Cl)ccc12
- GI50 (CAKI-1 renal): 0.782 µM
- TGI (CAKI-1 renal): 6.08 µM
- GI50 (SR leukemia): 0.812 µM
- TGI (SR leukemia): > 46.3 µM
- GI50 (UO-31 renal): 0.682 µM
- TGI (UO-31 renal): 8.8 µM
- GI50 (786-0 renal): 2.84 µM
- TGI (786-0 renal): 19.9 µM
- GI50 (BT-549 breast): 2.94 µM
- TGI (BT-549 breast): 9.62 µM
- GI50 (K-562 leukemia): 0.96 µM
- TGI (K-562 leukemia): > 49.8 µM
- GI50 (SF-539 CNS): 2.93 µM
- TGI (SF-539 CNS): 14.3 µM
- GI50 (HCT-15 colon): 2.33 µM
- TGI (HCT-15 colon): > 38.1 µM
- GI50 (OVCAR-4 ovarian): 2.07 µM
- TGI (OVCAR-4 ovarian): > 62.2 µM
- GI50 (OVCAR-3 ovarian): 1.47 µM
- TGI (OVCAR-3 ovarian): 15.3 µM
- GI50 (LOX IMVI melanoma): 0.982 µM
- TGI (LOX IMVI melanoma): 5.85 µM
- GI50 (MOLT-4 leukemia): 1.34 µM
- TGI (MOLT-4 leukemia): 49 µM
- GI50 (SF-268 CNS): 2.86 µM
- TGI (SF-268 CNS): > 49.5 µM
- GI50 (SK-MEL-2 melanoma): 2.35 µM
- TGI (SK-MEL-2 melanoma): 14.1 µM
- GI50 (TK-10 renal): 1.07 µM
- TGI (TK-10 renal): 4.3 µM
- GI50 (U251 CNS): 3.17 µM
- TGI (U251 CNS): 13.9 µM
- GI50 (HS 578T breast): 4.07 µM
- TGI (HS 578T breast): > 100 µM
- GI50 (MCF7 breast): 1.86 µM
- TGI (MCF7 breast): > 33.8 µM
- GI50 (SW-620 colon): 0.608 µM
- TGI (SW-620 colon): 12.5 µM
- GI50 (MDA-MB-435): 1.65 µM
- TGI (MDA-MB-435): > 20.5 µM
- GI50 (RXF 393 renal): 1.32 µM
- TGI (RXF 393 renal): 5.8 µM
- GI50 (SF-295 CNS): 8.38 µM
- TGI (SF-295 CNS): > 64 µM
- GI50 (MALME-3M melanoma): 2.15 µM
- TGI (MALME-3M melanoma): 13.3 µM
- GI50 (ACHN renal): 1.49 µM
- TGI (ACHN renal): 29.8 µM
- GI50 (CCRF-CEM leukemia): 0.663 µM
- TGI (CCRF-CEM leukemia): > 38.6 µM
- GI50 (SK-OV-3 ovarian): 6.58 µM
- TGI (SK-OV-3 ovarian): 70.2 µM
- GI50 (A549 NSCLC): 4.12 µM
- TGI (A549 NSCLC): > 61.7 µM
- GI50 (SN12C renal): 3.25 µM
- TGI (SN12C renal): > 100 µM
- GI50 (UACC-257 melanoma): 5.13 µM
- TGI (UACC-257 melanoma): 26.1 µM
- GI50 (UACC-62 melanoma): 3.83 µM
- TGI (UACC-62 melanoma): 29.6 µM
- GI50 (OVCAR-8 ovarian): 2.54 µM
- TGI (OVCAR-8 ovarian): > 27.3 µM
- GI50 (KM12 colon): 2.41 µM
- TGI (KM12 colon): > 24.3 µM
- GI50 (NCI-H460 lung): 2.74 µM
- TGI (NCI-H460 lung): > 25.7 µM
- GI50 (HCC-2998 colon): 8.81 µM
- TGI (HCC-2998 colon): > 23.8 µM
- GI50 (M14 melanoma): 2.53 µM
- TGI (M14 melanoma): 9.33 µM
- GI50 (OVCAR-5 ovarian): 3.97 µM
- TGI (OVCAR-5 ovarian): > 100 µM
- GI50 (SNB-19 CNS): 6.69 µM
- TGI (SNB-19 CNS): > 100 µM
- GI50 (HL-60(TB) leukemia): 1.37 µM
- TGI (HL-60(TB) leukemia): 20 µM
- GI50 (DU-145 prostate): 2.43 µM
- TGI (DU-145 prostate): > 32.8 µM
- GI50 (HOP-92 NSCLC): 0.619 µM
- TGI (HOP-92 NSCLC): 7.39 µM
- GI50 (HCT-116 colon): 0.834 µM
- TGI (HCT-116 colon): 4.63 µM
- GI50 (SK-MEL-28 melanoma): 4.97 µM
- TGI (SK-MEL-28 melanoma): 25.7 µM
- GI50 (A498 renal): 2.25 µM
- TGI (A498 renal): 8.28 µM
- GI50 (IGROV1 ovarian): 2.26 µM
- TGI (IGROV1 ovarian): 16.7 µM
- GI50 (SNB-75 CNS): 2.07 µM
- TGI (SNB-75 CNS): > 29 µM
- GI50 (T-47D breast): 6.23 µM
- TGI (T-47D breast): 48.8 µM
- GI50 (NCI/ADR-RES ovarian): 1.12 µM
- TGI (NCI/ADR-RES ovarian): 4.73 µM
- GI50 (SK-MEL-5 melanoma): 3.79 µM
- TGI (SK-MEL-5 melanoma): 10.4 µM
- GI50 (EKVX NSCLC): 4.31 µM
- TGI (EKVX NSCLC): > 46.1 µM
- GI50 (PC-3 prostate): 3.82 µM
- TGI (PC-3 prostate): > 100 µM
- GI50 (HT29 colon): 0.868 µM
- TGI (HT29 colon): 2.29 µM
- GI50 (NCI-H23 lung): 2.1 µM
- TGI (NCI-H23 lung): 14.9 µM
- GI50 (NCI-H226 lung): 4.61 µM
- TGI (NCI-H226 lung): > 100 µM
- GI50 (MDA-MB-231 breast): 3.1 µM
- TGI (MDA-MB-231 breast): > 100 µM
- GI50 (HOP-62 NSCLC): 4.99 µM
- TGI (HOP-62 NSCLC): > 100 µM
- GI50 (RPMI-8226 leukemia): 1.41 µM
- TGI (RPMI-8226 leukemia): 21.6 µM
- GI50 (NCI-H522 lung): 0.758 µM
- TGI (NCI-H522 lung): 2.11 µM
- GI50 (COLO 205 colon): 2.66 µM
- TGI (COLO 205 colon): 8.31 µM
